Results on 16 compounds are retold here after publication PMC10222582, “Iminosugar-Based Nicotinamide Phosphoribosyltransferase (NAMPT) Inhibitors as Potential Anti-Pancreatic Cancer Agents” (Pharmaceutics, 2023).

What is called IC50 is the concentration at which inhibition is half-maximal.

Assay [1] concerns MiaPaCa-2 cells. Description: Measurement of intracellular NAD+ levels (cycling enzymatic assay). In kind it is cell-based, human. The note with it: 24 h, 100 μM of inhibitor, SD < 20%.
Assay [2] deals with MiaPaCa-2 cells. Kind of assay: Cell viability assay (SRB). The format is cell-based. The following applies: Homo sapiens, MIA PaCa-2, MiaPaCa-2, 72 h. The protocol:
Cell viability assay. MiaPaCa-2 cells (2 × 10^3/well) were plated in 96−well plates and left to adhere overnight. After 24 h the cells were treated with the inhibitors. Viability was determined after 72 h. The culture plates were fixed with cold 3% trichloroacetic acid at 4 °C for 30 min, washed with cold water and dried overnight. Finally, the plates were stained with 0.4% sulforodhamine B (SRB) in 1% acetic acid, washed four times with 1% acetic acid to remove unbound dye, dried overnight and then the stain was extracted with 10 mM Tris Base and the absorbance was read at 560 nm.
Then, the new compounds were tested in vitro for their anti-proliferative effect, using the human pancreatic cancer cell line MiaPaca-2 in the cytotoxicity assays (Table 1).

The target in assay [3] is T1, recombinant human NAMPT (Homo sapiens, UniProt P43490).
T1 construct: purchased Abcam ab198090
T1 sequence (P43490 whole entry): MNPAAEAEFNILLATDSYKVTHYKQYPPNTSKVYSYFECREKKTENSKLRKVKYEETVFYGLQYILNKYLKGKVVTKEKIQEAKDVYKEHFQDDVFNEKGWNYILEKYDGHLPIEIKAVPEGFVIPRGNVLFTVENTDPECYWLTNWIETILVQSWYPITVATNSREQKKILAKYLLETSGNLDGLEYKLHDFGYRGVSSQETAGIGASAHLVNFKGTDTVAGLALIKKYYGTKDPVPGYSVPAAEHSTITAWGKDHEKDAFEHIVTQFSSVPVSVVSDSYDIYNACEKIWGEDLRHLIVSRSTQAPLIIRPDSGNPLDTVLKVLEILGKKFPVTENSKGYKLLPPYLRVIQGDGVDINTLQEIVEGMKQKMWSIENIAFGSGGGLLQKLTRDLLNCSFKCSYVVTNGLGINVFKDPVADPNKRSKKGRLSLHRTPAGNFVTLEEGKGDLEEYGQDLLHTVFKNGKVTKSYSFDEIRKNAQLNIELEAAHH
Description: NAMPT inhibition (fluorometric NMN detection). In kind it is biochemical. The note with it: NI = No inhibition at concentration < 1 mM, SD < 20%.

Assay [4] deals with MiaPaCa-2 cells. Description: Measurement of intracellular NAD+ levels (cycling enzymatic assay). The format is cell-based, human. The arrangement: dose or concentration left out as unconfirmed. The following applies: after 24 h. As for the experimental part: Measurement of intracellular NAD^+ levels. MiaPaCa-2 cells were plated at a density of 6.5 × 10^4 cells/well in 12−well plates. After 24 h, cells were treated (or not) with the different compounds and cultured for a further 24 h. Cells were harvested and lysed in 0.1 mL 0.6 M perchloric acid. Intracellular NAD^+ levels were determined with a cycling enzymatic assay, as previously reported.
In order to confirm that the above-mentioned anti-proliferative effect of the new NAMPT inhibitors were associated with NAD^+ depletion, we evaluated the intracellular NAD^+ concentration (iNAD^+) in MiaPaCa-2 cells for all the compounds (at a fixed […] concentration). After 24 h, only the iminosugar-based inhibitors 22 (77%) and 29 (79%), as well as the non-carbohydrate analogue 42 (61%), led to significant depletion; the other compounds exerted an effect in the 0–10% range.

The mark [5] stands for this setting: NI (footnote 3) = No inhibition at concentration < 400 μM, SD < 20%.

As for `CC(C)(C)c1ccc(S(=O)(=O)N2CCC(CCCC(=O)Nc3ccc([C@@H]4N[C@H](CO)[C@@H](O)[C@H]4O)cc3)CC2)cc1` [Compound 21], the “iNAD+ Depletion (%)” value in assay [1] is on record as 0%. In addition, the results for the IC50 in assay [2] (NI (footnote 2) = No inhibition at concentration < 100 μM) and in assay [3] were > 400 µM and > 1000 µM, respectively.
Consider `O=C(CCCC1CCN(C(=O)c2ccccc2)CC1)Nc1ccc([C@@H]2N[C@H](CO)[C@@H](O)[C@H]2O)cc1` [Compound 22], for which the “iNAD+ Depletion (%)” value in assay [1] turned out to be 77%. The IC50 in assay [2] (setting [5]) was found to be 108 µM; in assay [3] it was 99.5 µM. For the same compound, the “intracellular NAD+ depletion” value in assay [4] is 77%.
For the compound `O=C(CCCCCNC(=O)c1ccccc1)Nc1ccc([C@@H]2N[C@H](CO)[C@@H](O)[C@H]2O)cc1` [Compound 23], the “iNAD+ Depletion (%)” value in assay [1] is recorded as 5%. Besides, the IC50 in assay [2] (setting [5]) was > 400 µM; in assay [3] it was 363 µM.
Turning to `CC(C)(C)c1ccc(S(=O)(=O)NCc2ccc(C(=O)Nc3ccc([C@@H]4N[C@H](CO)[C@@H](O)[C@H]4O)cc3)cc2)cc1` [Compound 24], in assay [1], the “iNAD+ Depletion (%)” value is on record as 9%. Besides, the IC50 in assay [2] (setting [5]) was > 400 µM; in assay [3], 549 µM.
The matching figures for `O=C(NCc1ccc(C(=O)Nc2ccc([C@@H]3N[C@H](CO)[C@@H](O)[C@H]3O)cc2)cc1)c1ccccc1` [Compound 25]: 0%, > 400 µM and > 1000 µM.
The matching figures for `COC[C@H]1N[C@@H](c2ccc(NC(=O)CCCC3CCN(S(=O)(=O)c4ccc(C(C)(C)C)cc4)CC3)cc2)[C@H](OC)[C@@H]1OC` [Compound 26]: 10%, 37 µM and 139 µM.
On to `COC[C@H]1N[C@@H](c2ccc(NC(=O)CCCC3CCN(C(=O)c4ccccc4)CC3)cc2)[C@H](OC)[C@@H]1OC` [Compound 27], for which the “iNAD+ Depletion (%)” value in assay [1] turned out to be 0%. Besides, the values for the IC50 in assay [2] (setting [5]) and in assay [3] were 539 µM and > 1000 µM, respectively.
The matching figures for `COC[C@H]1N[C@@H](c2ccc(NC(=O)CCCCCNC(=O)c3ccccc3)cc2)[C@H](OC)[C@@H]1OC` [Compound 28]: 3%, > 400 µM and 603 µM.
Turning to `COC[C@H]1N[C@@H](c2ccc(NC(=O)c3ccc(CNS(=O)(=O)c4ccc(C(C)(C)C)cc4)cc3)cc2)[C@H](OC)[C@@H]1OC` [Compound 29], the “iNAD+ Depletion (%)” value in assay [1] is on record as 79%. Besides, the IC50 in assay [2] (setting [5]) was determined as 32 µM; in assay [3], 63 µM. Moreover, the “intracellular NAD+ depletion” value in assay [4] was 79%.
For the compound `COC[C@H]1N[C@@H](c2ccc(NC(=O)c3ccc(CNC(=O)c4ccccc4)cc3)cc2)[C@H](OC)[C@@H]1OC` [Compound 30], the “iNAD+ Depletion (%)” value in assay [1] stood at 0%. The IC50 in assay [2] (setting [5]) was 920 µM; in assay [3], > 1000 µM.
As for `CC(C)(C)c1ccc(S(=O)(=O)N2CCC(CCCC(=O)Nc3ccccc3)CC2)cc1` [Compound 34], in assay [1], the “iNAD+ Depletion (%)” value was determined as 6%. In addition, the values for the IC50 in assay [2] (setting [5]) and in assay [3] were 46.6 µM and 357 µM, respectively.
The matching figures for `O=C(CCCC1CCN(C(=O)c2ccccc2)CC1)Nc1ccccc1` [Compound 35]: 4%, 91.4 µM and > 1000 µM.
Regarding `O=C(CCCCCNC(=O)c1ccccc1)Nc1ccccc1` [Compound 38], the “iNAD+ Depletion (%)” value in assay [1] is 0%. Further, the figures for the IC50 in assay [2] (setting [5]) and in assay [3] were 340 µM and 113 µM, respectively.
As to `CC(C)(C)c1ccc(S(=O)(=O)NCc2ccc(C(=O)Nc3ccccc3)cc2)cc1` [Compound 42], in assay [1], the “iNAD+ Depletion (%)” value was determined as 61%. The IC50 is > 400 µM in assay [2] (setting [5]) and 43 µM in assay [3]. The “intracellular NAD+ depletion” value in assay [4] turned out to be 61%.
`O=C(NCc1ccc(C(=O)Nc2ccccc2)cc1)c1ccccc1` [Compound 43]: the “iNAD+ Depletion (%)” value in assay [1] was found to be 1%. For the same compound, the IC50 worked out at 698 µM in assay [2] (setting [5]) and 283 µM in assay [3].
Turning to `O=C(/C=C/c1cccnc1)NCCCCC1CCN(C(=O)c2ccccc2)CC1` [FK866, reference compound], the “iNAD+ Depletion (%)” value in assay [1] is reported as 90%. This compound yielded an IC50 in assay [2] (setting [5]) of 0.0024 µM.
